Laboratory results taken from patent publication US20170073337A1, “DIHYDROTHIAZINE AND DIHYDROOXAZINE DERIVATIVES HAVING BACE1 INHIBITORY ACTIVITY” (Shionogi & Co., Ltd., priority 2014, published 2017).
Converted amounts (≈) assume the structure as drawn. Like-named read-outs stand apart in the source and are kept apart here.

Legend:
[1] = biological target: T1, CYP1A2 (Homo sapiens, UniProt P05177); test: CYP inhibition test (CYP1A2); format: in vitro ADME; details: pooled human liver microsomes; 7-ethoxyresorufin O-deethylation
T1 construct: The commercially available pooled human liver microsomes are used as an enzyme resource; from tissue; host or cells: pooled human liver microsomes
T1 sequence (P05177 1-516): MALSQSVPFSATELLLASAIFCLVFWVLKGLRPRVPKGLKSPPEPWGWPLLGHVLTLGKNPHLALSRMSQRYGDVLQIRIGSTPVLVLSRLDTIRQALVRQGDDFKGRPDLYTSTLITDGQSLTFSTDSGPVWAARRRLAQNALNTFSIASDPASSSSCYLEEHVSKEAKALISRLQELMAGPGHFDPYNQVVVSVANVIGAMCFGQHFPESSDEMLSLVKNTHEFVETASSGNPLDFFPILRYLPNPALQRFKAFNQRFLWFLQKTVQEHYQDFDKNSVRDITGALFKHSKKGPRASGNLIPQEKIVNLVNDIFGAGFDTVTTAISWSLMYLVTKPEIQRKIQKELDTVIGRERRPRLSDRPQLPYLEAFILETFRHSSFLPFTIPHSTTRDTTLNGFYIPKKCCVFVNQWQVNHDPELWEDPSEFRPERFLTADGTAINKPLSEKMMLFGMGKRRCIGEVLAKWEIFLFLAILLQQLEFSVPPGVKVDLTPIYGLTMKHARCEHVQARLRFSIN
Procedure, shortened: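 Inhibition of CYP1A2 was measured in commercially available pooled human liver microsomes (0.2 mg protein/mL) using 7-ethoxyresorufin O-deethylation with 0.5 μmol/L ethoxyresorufin. Test compound at 1, 5, 10, 20 μmol/L in […] Hepes buffer was incubated at 37° C. after NADPH addition; methanol/acetonitrile=1/1 (v/v) stopped the reaction, and resorufin was read fluorescently.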

[2] = biological target: T2, CYP2C19 (Homo sapiens, UniProt P33261); test: CYP inhibition test (CYP2C19); format: in vitro ADME; details: pooled human liver microsomes; mephenytoin 4′-hydroxylation
T2 construct: The commercially available pooled human liver microsomes are used as an enzyme resource; from tissue; host or cells: pooled human liver microsomes
T2 sequence (P33261 whole entry): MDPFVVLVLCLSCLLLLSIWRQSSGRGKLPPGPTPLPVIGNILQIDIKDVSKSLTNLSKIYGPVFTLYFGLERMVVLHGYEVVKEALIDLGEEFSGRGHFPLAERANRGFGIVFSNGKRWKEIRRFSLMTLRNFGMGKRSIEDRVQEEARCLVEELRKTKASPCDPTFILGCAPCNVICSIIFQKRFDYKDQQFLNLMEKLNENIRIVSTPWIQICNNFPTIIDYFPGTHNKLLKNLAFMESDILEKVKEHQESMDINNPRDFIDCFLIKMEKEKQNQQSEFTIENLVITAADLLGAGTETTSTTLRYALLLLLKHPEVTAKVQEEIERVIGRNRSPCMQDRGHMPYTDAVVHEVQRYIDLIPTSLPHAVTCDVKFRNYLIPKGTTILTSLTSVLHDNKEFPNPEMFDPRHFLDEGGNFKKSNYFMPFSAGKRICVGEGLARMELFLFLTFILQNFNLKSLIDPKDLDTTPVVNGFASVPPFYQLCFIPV
Procedure, shortened: (§1)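 Pooled human liver microsomes (0.2 mg protein/mL) with compound at 1, 5, 10 and 20 μmol/L and NADPH, at 37 °C. Marker substrates: dextromethorphan 5 μmol/L (2D6), terfenadine 1 μmol/L (3A4), S-mephenytoin 50 μmol/L (2C19), tolbutamide 100 μmol/L (2C9). Metabolites were measured by LC/MS/MS, and IC50 was derived by logistic fit of remaining activity against the DMSO control.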

[3] = biological target: T3, CYP3A4 (Homo sapiens, UniProt P08684); test: CYP inhibition test (CYP3A4); format: in vitro ADME; details: pooled human liver microsomes; terfenadine hydroxylation
T3 construct: The commercially available pooled human liver microsomes are used as an enzyme resource; from tissue; host or cells: pooled human liver microsomes
T3 sequence (P08684 whole entry): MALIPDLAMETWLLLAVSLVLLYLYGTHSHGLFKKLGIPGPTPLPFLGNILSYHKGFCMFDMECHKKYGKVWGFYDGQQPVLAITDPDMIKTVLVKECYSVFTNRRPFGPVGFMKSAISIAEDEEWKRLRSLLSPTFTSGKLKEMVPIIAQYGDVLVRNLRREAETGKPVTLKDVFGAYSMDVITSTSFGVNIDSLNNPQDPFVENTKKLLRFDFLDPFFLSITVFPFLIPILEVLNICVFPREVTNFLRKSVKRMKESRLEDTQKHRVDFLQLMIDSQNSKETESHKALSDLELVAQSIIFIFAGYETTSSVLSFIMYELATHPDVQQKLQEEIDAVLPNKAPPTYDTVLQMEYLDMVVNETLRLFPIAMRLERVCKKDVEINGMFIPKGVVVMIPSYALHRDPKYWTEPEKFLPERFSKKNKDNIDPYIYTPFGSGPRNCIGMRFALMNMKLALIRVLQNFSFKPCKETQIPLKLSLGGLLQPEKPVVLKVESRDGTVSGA
Procedure, shortened: as §1

[4] = Solubility test; format: physicochemical; details: kinetic from dmso stock; for solubility kinetic at 16 h: 25 °C
Procedure, shortened: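 Dissolved concentration determined by LC/MS or SPE/MS (absolute calibration) in diluted filtrates, after 2 μL of 10 mmol/L DMSO stock was added to 198 μL JP 1st or JP 2nd fluid and equilibrated either 1 h with shaking at room temperature or 16 h standing at 25 °C.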

[5] = Metabolic stability test; format: in vitro ADME; details: human liver microsomes, 37° C., 30 minutes, NADPH
Procedure, shortened: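 Parent compound was measured by LC/MS/MS or SPE/MS after a methanol/acetonitrile quench and reported as % remaining, with the 0 min sample set to 100%. Incubations ran 30 min at 37 °C in pH 7.4 Tris buffer containing pooled human liver microsomes at 0.5 mg protein/mL and 1 mmol/L NADPH.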

[6] = biological target: T4, human ether-a-go-go related gene (hERG) channel (Homo sapiens, UniProt Q12809); test: hERG test; format: cell-based; details: % inhibition of IKr tail peak current at 3 uM; CHO cells expressing hERG
T4 construct: expressed in transfected cells; host or cells: CHO cells
T4 sequence (Q12809 whole entry): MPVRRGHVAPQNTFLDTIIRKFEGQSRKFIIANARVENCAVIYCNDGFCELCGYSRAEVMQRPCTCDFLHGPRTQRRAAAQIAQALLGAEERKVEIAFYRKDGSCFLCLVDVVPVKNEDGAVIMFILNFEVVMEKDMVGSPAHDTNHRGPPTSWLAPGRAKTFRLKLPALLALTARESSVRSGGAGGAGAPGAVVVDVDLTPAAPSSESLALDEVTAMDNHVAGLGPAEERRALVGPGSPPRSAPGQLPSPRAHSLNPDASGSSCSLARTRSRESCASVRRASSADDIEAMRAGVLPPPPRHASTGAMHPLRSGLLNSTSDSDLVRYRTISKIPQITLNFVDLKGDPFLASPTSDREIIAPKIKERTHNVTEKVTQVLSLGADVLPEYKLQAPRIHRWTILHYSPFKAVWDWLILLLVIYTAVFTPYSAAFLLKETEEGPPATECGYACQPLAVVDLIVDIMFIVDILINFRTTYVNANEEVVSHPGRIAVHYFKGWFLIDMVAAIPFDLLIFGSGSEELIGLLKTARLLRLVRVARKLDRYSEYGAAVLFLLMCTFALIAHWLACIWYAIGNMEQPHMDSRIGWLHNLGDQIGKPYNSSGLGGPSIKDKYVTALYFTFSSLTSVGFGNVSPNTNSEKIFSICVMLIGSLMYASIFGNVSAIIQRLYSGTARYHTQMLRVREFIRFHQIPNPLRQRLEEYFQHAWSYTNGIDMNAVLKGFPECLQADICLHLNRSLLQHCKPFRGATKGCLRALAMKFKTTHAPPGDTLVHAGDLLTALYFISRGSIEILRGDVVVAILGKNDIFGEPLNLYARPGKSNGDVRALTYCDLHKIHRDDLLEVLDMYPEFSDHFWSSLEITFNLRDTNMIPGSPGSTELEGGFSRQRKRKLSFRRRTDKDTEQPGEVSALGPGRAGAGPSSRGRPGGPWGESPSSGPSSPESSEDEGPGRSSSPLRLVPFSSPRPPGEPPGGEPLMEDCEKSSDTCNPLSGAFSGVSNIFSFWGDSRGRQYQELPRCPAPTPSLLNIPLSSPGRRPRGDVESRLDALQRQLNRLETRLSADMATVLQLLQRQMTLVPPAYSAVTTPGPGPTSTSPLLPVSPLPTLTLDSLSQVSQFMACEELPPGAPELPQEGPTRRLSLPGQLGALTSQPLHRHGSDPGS
Procedure, shortened: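 Automated whole-cell patch clamp was run on CHO cells carrying human hERG, held at −80 mV. Current was recorded during the −50 mV repolarization (2 s) that followed a 2 s +20 mV step, after a −50 mV leak pulse.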

[7] = JP 1st fluid, pH 1.2, simulated gastric fluid, read-out: JP1
[8] = JP 2nd fluid A, pH 6.8, aqueous buffer, read-out: JP2_μM

| Compound | IC50 [1] [µM] | IC50 [2] [µM] | IC50 [3] [µM] | solubility kinetic at 16 h [4, 7] [µM] | solubility kinetic at 16 h [4, 8] [µM] | remaining % [5] [%] | hERG_3 uM_% [6] [%] | solubility kinetic at 1 h [4, 7] [µM] | solubility kinetic at 1 h [4, 8] [µM] |
| --- | --- | --- | --- | --- | --- | --- | --- | --- | --- |
| C[C@H](F)[C@H]1OC(N)=N[C@](C)(c2cc(NC(=O)c3ccc(C#N)cn3)ccc2F)[C@H]1F [Compound I-13] | ≥ 20 | ≥ 20 | ≥ 20 | 39.6 (≈ 16.5 µg/mL) | > 50 | 101 | 52.8 | – | – |
| C[C@@H](F)[C@H]1OC(N)=N[C@](C)(c2cc(NC(=O)c3ccc(C#N)cn3)ccc2F)[C@H]1F [Compound I-15] | ≥ 20 | ≥ 20 | ≥ 20 | – | – | 104 | 57 | 31.9 (≈ 13.3 µg/mL) | > 50 |
| CO[C@H]1[C@@H](CF)OC(N)=N[C@]1(C)c1cc(NC(=O)c2ccc(C#N)cn2)ccc1Cl [Compound I-18] | ≥ 20 | ≥ 20 | ≥ 20 | 36 (≈ 15.5 µg/mL) | > 50 | 71.4 | 44.8 | – | – |
| CO[C@H]1[C@@H](CF)OC(N)=N[C@]1(C)c1cc(NC(=O)c2cnc(OCF)cn2)ccc1Cl [Compound I-19] | ≥ 20 | ≥ 20 | ≥ 20 | 37.1 (≈ 16.9 µg/mL) | > 50 | 69.9 | 18.8 | – | – |
| CO[C@H]1[C@@H](CF)OC(N)=N[C@]1(C)c1cc(NC(=O)c2ccc(F)cn2)ccc1Cl [Compound I-20] | ≥ 20 | ≥ 20 | ≥ 20 | 38.9 (≈ 16.5 µg/mL) | > 50 | 75.4 | 30.4 | – | – |
| CO[C@H]1[C@@H](CF)OC(N)=N[C@]1(C)c1cc(NC(=O)c2cnc(OCF)cn2)ccc1F [Compound I-24] | ≥ 20 | ≥ 20 | ≥ 20 | 38.8 (≈ 17 µg/mL) | > 50 | 95.5 | 6.7 | – | – |
| CO[C@H]1[C@@H](CF)OC(N)=N[C@]1(C)c1cc(NC(=O)c2ccc(F)cn2)ccc1F [Compound I-25] | ≥ 20 | ≥ 20 | ≥ 20 | 46.7 (≈ 19.1 µg/mL) | > 50 | 89.1 | 41.9 | – | – |
| C[C@@H]1[C@@H](C(F)(F)F)OC(N)=N[C@]1(C)c1cc(NC(=O)c2ccc(C#N)cn2)ccc1F [Compound I-27] | ≥ 20 | ≥ 20 | ≥ 20 | 39.7 (≈ 17.3 µg/mL) | > 50 | 84.7 | 28.8 | – | – |
| C[C@H]1[C@H](C(F)(F)F)OC(N)=N[C@]1(C)c1cc(NC(=O)c2ccc(C#N)cn2)ccc1F [Compound I-29] | ≥ 10 | ≥ 20 | ≥ 20 | 35 (≈ 15.2 µg/mL) | > 50 | 98.2 | 45.4 | – | – |
| Cc1nc(C(=O)Nc2ccc(F)c([C@@]3(C)N=C(N)O[C@H](C(F)(F)F)[C@@H]3C)c2)co1 [Compound I-32] | ≥ 20 | ≥ 20 | ≥ 20 | > 50 | > 50 | 94.6 | 15.2 | – | – |
| C[C@H]1[C@@H](C(F)F)OC(N)=N[C@]1(C)c1cc(NC(=O)c2cnc(OCF)cn2)ccc1F [Compound I-33] | ≥ 20 | ≥ 20 | ≥ 20 | – | – | 87.5 | 21.9 | 39.4 (≈ 17.4 µg/mL) | > 50 |
| CC(F)(F)[C@H]1OC(N)=N[C@](C)(c2cc(NC(=O)c3ccc(C#N)cn3)ccc2F)[C@H]1F [Compound I-40] | ≥ 20 | ≥ 20 | ≥ 20 | – | – | 106 | 48.4 | > 50 | > 50 |
| COc1cnc(C(=O)Nc2ccc(F)c([C@@]3(C)N=C(N)O[C@H](C(C)(F)F)[C@@H]3F)c2)cn1 [Compound I-42] | ≥ 20 | ≥ 20 | ≥ 20 | – | – | 68.2 | 15.5 | > 50 | > 50 |
| C[C@]1(c2cc(NC(=O)c3cnc(OCF)cn3)ccc2F)N=C(N)OCC12CC(F)(F)C2 [Compound I-44] | ≥ 20 | ≥ 20 | ≥ 20 | 34 (≈ 15.4 µg/mL) | > 50 | 86.4 | 28.9 | – | – |
| C[C@]1(c2cc(NC(=O)c3ccc(F)cn3)ccc2F)N=C(N)OCC12CC(F)(F)C2 [Compound I-45] | ≥ 20 | ≥ 20 | ≥ 20 | 35.8 (≈ 15.1 µg/mL) | > 50 | 93.5 | 51.6 | – | – |
| C[C@H]1SC(N)=N[C@](C)(c2cc(NC(=O)c3cnc(OC(F)F)cn3)ccc2F)[C@H]1F [Compound I-47] | ≥ 20 | ≥ 20 | ≥ 20 | – | – | 96.9 | 40.4 | > 50 | 30.5 (≈ 13.5 µg/mL) |
| C[C@H]1SC(N)=N[C@](C)(c2cc(NC(=O)c3coc(CF)n3)ccc2F)[C@H]1F [Compound I-49] | ≥ 20 | ≥ 20 | ≥ 20 | – | – | 95.4 | 27.2 | > 50 | > 50 |
